Laboratory results taken from patent US20030113379A1, “Biodegradable composite matrix for enhancing angiogenesis and method for producing the same” (INDUSTRIAL TECHNOLOGY RESEARCH INSTITUTE, priority 2001, published 2003).
“Also recorded” adds a separate entry of the source.

Tested on: mouse
Test: Angiogenesis in mice after subcutaneous injection of hydrogel composite matrix (HE-stained tissue sections)
Format: in vivo
Conditions: mice sacrificed 15 days after subcutaneous injection of the hydrogel; rank order against PBS control
Method: S-1-P was dissolved in methanol and the solution was poured into a round bottom flask. S-1-P was then dried and spread onto the inner wall of the flask by decompression distillation. PBS was added into the flask followed by rapid freezing using liquid nitrogen. The mixture was then sonicated under room temperature to melt the S-1-P from the inner wall and form micelles. The resulting S-1-P micelles were mixed with chitin hydrogel and bFGF to give a composite matrix. The composite matrix was introduced into the mouse via subcutaneous injection.
The mice were sacrificed 15 days after injecting the hydrogel. The implanted tissues were obtained, fixed, embedded, sectioned, stained, and observed under a 200 times microscope. The sizes and conditions of the blood vessels of the sections were observed. […] The arrows indicate the blood vessels. FIG. 2 is the average numbers of blood vessels of the tissue sections. It is shown that blood vessel number of the sections is bFGF/S-1-P>bFGF>PBS, which is in consistent with results shown in FIG. 1.

bFGF: protein growth factor (fibroblast growth factor) used alone as the comparison sample
average numbers of blood vessels of the tissue sections (FIG. 2): larger than the PBS sample; also recorded: bFGF>PBS
